Article PMC7316143 (Drug testing and analysis, 2018)

Tests used:
Assay type in all cases: biochemical
[1] = biological target: T1, DAT (Rattus norvegicus, UniProt P23977); test: [3H]MPP+ release at DAT in rat brain synaptosomes; settings: for DAT/SERT ratio (release): (DAT EC50^-1)/(SERT EC50^-1), higher value indicates greater DAT selectivity; for Emax: read-out: Release at DAT % Emax
[2] = biological target: T1, DAT; test: [3H]dopamine uptake inhibition at DAT in rat brain synaptosomes; settings: for DAT/SERT ratio (uptake inhibition): (DAT IC50^-1)/(SERT IC50^-1), higher value indicates greater DAT selectivity; for IC50: [3H]Dopamine uptake at DAT IC50, rat caudate synaptosomes, 5 nM [3H]dopamine, mean ± SD, N=3
[3] = biological target: T2, SERT (Rattus norvegicus, UniProt P31652); test: [3H]5-HT release at SERT in rat brain synaptosomes; settings: for Emax: read-out: Release at SERT % Emax
[4] = biological target: T2, SERT; test: [3H]5-HT uptake inhibition at SERT in rat brain synaptosomes
[5] = biological target: T3, NET (Rattus norvegicus, UniProt Q63380); test: [3H]norepinephrine uptake inhibition at NET in rat brain synaptosomes; settings: [3H]Norepinephrine uptake at NET IC50, rat brain synaptosomes, 10 nM [3H]norepinephrine; mean ± SD, N=3
[6] = biological target: T3, NET; test: [3H]MPP+ release at NET in rat brain synaptosomes; settings: for Emax: read-out: Release at NET % Emax

T3 sequence (Q63380 1-617): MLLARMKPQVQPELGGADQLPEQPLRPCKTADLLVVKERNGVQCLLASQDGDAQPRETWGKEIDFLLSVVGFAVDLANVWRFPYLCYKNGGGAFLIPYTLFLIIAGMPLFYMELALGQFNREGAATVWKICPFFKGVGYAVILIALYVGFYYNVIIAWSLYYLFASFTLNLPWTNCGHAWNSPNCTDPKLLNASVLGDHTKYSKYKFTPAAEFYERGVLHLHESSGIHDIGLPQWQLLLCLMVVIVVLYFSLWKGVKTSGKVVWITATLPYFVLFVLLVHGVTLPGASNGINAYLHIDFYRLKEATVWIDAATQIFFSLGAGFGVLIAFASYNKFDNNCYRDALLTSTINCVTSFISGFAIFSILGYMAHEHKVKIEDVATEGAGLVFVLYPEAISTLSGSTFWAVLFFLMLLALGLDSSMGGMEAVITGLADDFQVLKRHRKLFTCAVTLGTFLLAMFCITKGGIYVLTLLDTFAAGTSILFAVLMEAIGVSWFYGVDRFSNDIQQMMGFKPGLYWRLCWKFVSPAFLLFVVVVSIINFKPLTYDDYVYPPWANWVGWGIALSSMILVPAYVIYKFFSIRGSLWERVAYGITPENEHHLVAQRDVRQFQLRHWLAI
T1 sequence (P23977 whole entry): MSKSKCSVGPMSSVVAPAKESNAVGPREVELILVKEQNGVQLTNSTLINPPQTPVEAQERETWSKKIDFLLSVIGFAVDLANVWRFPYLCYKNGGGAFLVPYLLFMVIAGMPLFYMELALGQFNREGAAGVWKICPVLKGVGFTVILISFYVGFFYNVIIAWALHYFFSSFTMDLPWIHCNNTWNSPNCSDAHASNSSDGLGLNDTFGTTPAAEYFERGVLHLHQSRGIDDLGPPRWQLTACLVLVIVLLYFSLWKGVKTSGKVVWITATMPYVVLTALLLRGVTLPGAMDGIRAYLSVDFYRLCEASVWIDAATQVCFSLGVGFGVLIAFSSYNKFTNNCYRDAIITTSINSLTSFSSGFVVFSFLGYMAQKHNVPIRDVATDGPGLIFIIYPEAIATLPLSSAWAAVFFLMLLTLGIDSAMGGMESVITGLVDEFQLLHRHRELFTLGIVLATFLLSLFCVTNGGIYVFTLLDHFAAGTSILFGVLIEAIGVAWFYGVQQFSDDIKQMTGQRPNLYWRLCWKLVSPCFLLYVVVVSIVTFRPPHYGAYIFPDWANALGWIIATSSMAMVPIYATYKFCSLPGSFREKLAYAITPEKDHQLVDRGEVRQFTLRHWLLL
T2 sequence (P31652 whole entry): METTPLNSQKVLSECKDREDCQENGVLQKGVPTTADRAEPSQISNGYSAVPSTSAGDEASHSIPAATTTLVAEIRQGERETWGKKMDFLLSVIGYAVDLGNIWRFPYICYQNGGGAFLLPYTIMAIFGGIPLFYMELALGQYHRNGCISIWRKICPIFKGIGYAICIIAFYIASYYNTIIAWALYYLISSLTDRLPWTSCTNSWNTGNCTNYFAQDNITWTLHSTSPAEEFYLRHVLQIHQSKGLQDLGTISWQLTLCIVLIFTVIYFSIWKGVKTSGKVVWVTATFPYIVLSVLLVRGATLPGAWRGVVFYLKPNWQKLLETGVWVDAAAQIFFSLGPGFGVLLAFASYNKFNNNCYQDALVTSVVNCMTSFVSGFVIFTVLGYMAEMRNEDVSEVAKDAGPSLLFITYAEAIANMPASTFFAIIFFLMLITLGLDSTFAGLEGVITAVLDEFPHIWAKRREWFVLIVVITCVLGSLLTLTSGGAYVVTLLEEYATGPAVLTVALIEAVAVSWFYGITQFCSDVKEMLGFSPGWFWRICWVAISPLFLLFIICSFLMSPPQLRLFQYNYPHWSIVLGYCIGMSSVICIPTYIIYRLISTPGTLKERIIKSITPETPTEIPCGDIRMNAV

SMILES	EC50 [1] [nM]	DAT/SERT ratio (release) [1]	Emax [1] [%]	DAT/SERT ratio (uptake inhibition) [2]	IC50 [2] [nM]	EC50 [3] [nM]	Emax [3] [%]	IC50 [4] [µM]	IC50 [5] [nM]	EC50 [6] [nM]	Emax [6] [%]	releaser activity at SERT (in words) ([3]; rat brain synaptosomes)	fold more potent than 2-MPM at DAT (uptake inhibition) ([2]; relative to 2-MPM)	fold more potent than 2-MPM and phenmetrazine at SERT (uptake inhibition) ([4]; relative to 2-MPM and phenmetrazine) [fold]
Cc1ccccc1C1OCCNC1C (stereo not shown) [2-MPM, 3-Methyl-2-(2-methylphenyl)morpholine]	374 ± 38	4.7	104	0.6	6590 ± 1310	1760 ± 336	101	4.01 ± 0.317	2600 ± 633	102 ± 12	91	–	–	–
CC1NCCOC1c1ccccc1 (stereo not shown) [Phenmetrazine, 3-methyl-2-phenylmorpholine, reference compound]	70 ± 9	–	101	–	933 ± 57	> 10000	–	3.57 ± 0.836	1160 ± 197	29 ± 4	95	negligible activity	–	–
Cc1cccc(C2OCCNC2C)c1 (stereo not shown) [3-MPM, 3-Methyl-2-(3-methylphenyl)morpholine]	1320 ± 218	4.1	110	–	> 10000	5380 ± 947	111	> 10	5210 ± 1650	509 ± 73	90	–	–	–
Cc1ccc(C2OCCNC2C)cc1 (stereo not shown) [4-MPM, 3-Methyl-2-(4-methylphenyl)morpholine]	227 ± 30	0.4	99	0.2	1930 ± 207	86 ± 12	88	0.408 ± 0.017	1930 ± 392	62 ± 9	90	–	about 3.5 fold	~10
